Results published in patent US12655124B2, “Heterocyclic compounds as modulators of stimulator of interferon genes (STING)” (RYVU THERAPEUTICS S.A., priority 2019, dated 2026).
Structures can show the parent of a compound that is named as a salt.

Molecular target: human STING (Homo sapiens, UniProt Q86WV6)
Test: Fluorescence Thermal Shift assay (hSTING FTS binding assay);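 note: STING preincubated with compound for 20 min in HEPES NaCl buffer pH 7.5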
Settings: ΔTm, STING 0.1 mg/mL, SyproOrange, 25 to 99° C.
Protocol: Fluorescence Thermal Shift Assay Compounds of the present invention were tested for binding to human STING in Fluorescence Thermal Shift assay. […] Final STING concentration was 0.1 mg/mL. Thermal unfolding was performed in Real-Time PCR QuantStudio 6 Flex System (Applied Biosystems), from 25 to 99° C., with continuous ramp mode and ramp rate 0.033° C./s. The data were analyzed using Protein Thermal Shift Software (ThermoFisher).

human STING, sequence (Q86WV6 whole entry H232R): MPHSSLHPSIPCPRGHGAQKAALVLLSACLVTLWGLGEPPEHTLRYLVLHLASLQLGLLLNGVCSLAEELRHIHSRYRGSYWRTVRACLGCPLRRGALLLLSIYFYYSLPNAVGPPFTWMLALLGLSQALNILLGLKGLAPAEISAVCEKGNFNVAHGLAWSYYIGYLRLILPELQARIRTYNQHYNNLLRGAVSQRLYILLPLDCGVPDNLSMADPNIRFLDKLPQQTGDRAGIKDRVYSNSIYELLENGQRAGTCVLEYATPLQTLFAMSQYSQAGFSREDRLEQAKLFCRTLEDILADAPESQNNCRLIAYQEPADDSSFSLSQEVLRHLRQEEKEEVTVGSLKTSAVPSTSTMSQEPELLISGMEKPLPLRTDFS

Structure (SMILES) | hSTING FTS binding assay (ΔT ° C.)
Cc1ccc(N2CCC[C@H](N(Cc3ccnc(C)c3)Cc3cn(C4CC4)c4cc(N5CC[C@H](N)C5)c(F)cc4c3=O)C2)cn1.Cl [Example 13, 7-[(3S)-3-Aminopyrrolidin-1-yl]-1-cyclopropyl-6-fluoro-3-({[(3S)-1-(6-methylpyridin-3-yl)piperidin-3-yl][(2-methylpyridin-4-yl)methyl]amino}methyl)-1,4-dihydroquinolin-4-one Hydrochloride] | +++ (ΔTm≥20° C.)
CNC1CCN(c2cc3c(cc2F)c(=O)c(CN(Cc2ccnc(C)c2)[C@H]2CCCN(c4ccc(C)nc4)C2)cn3C2CC2)C1 (stereo partly drawn) [Example 33, 1-cyclopropyl-6-fluoro-7-[3-(methylamino)pyrrolidin-1-yl]-3-({[(3S)-1-(6-methylpyridin-3-yl)piperidin-3-yl][(2-methylpyridin-4-yl)methyl]amino}methyl)-1,4-dihydroquinolin-4-one] | +++ (ΔTm≥20° C.)
Cc1ccc(N2CCC[C@H](N(Cc3ccnc(C)c3)Cc3cn(C4CC4)c4cc(N5CCC(C(=O)O)CC5)c(F)cc4c3=O)C2)cn1 [Example 67, 1-[1-cyclopropyl-6-fluoro-3-({[(3S)-1-(6-methylpyridin-3-yl)piperidin-3-yl][(2-methylpyridin-4-yl)methyl]amino}methyl)-4-oxo-1,4-dihydroquinolin-7-yl]piperidine-4-carboxylic Acid] | +++ (ΔTm≥20° C.)
Cc1ccc(N2CCC[C@H](N(Cc3ccnc(C)c3)Cc3cn(C4CC4)c4cc(N5CC[C@@H](N)C5)c(F)cc4c3=O)C2)cn1.Cl [Example 12, 7-[(3R)-3-Aminopyrrolidin-1-yl]-1-cyclopropyl-6-fluoro-3-({[(3S)-1-(6-methylpyridin-3-yl)piperidin-3-yl][(2-methylpyridin-4-yl)methyl]amino}methyl)-1,4-dihydroquinolin-4-one Hydrochloride] | +++ (ΔTm≥20° C.)
Cc1cc(CN(Cc2cn(C)c3ccccc3c2=O)[C@H]2CCCN(c3cccc(N)c3)C2)ccn1.Cl [Example 1, 3-({[(3S)-1-(3-Aminophenyl)piperidin-3-yl][(2-methylpyridin-4-yl)methyl]amino}methyl)-1-methyl-1,4-dihydroquinolin-4-one Hydrochloride] | + (ΔTm≤10° C.)
CN[C@H]1CCN(c2cc3c(cc2F)c(=O)c(CN(Cc2ccnc(C)c2)[C@H]2CCCN(c4ccc(C)nc4)C2)cn3C2CC2)C1.Cl [Example 58, 1-Cyclopropyl-6-fluoro-7-[(3S)-3-(methylamino)pyrrolidin-1-yl]-3-({[(3S)-1-(6-methylpyridin-3-yl)piperidin-3-yl][(2-methylpyridin-4-yl)methyl]amino}methyl)-1,4-dihydroquinolin-4-one Hydrochloride] | +++ (ΔTm≥20° C.)
Cc1cc(CN(Cc2cn(C)c3cc(Br)ccc3c2=O)[C@H]2CCCN(c3ccc(N)nc3)C2)ccn1.Cl [Example 29, 3-({[(3S)-1-(6-aminopyridin-3-yl)piperidin-3-yl][(2-methylpyridin-4-yl)methyl]amino}methyl)-7-bromo-1-methyl-1,4-dihydroquinolin-4-one Hydrochloride] | +++ (ΔTm≥20° C.)
Cc1ccc(N2CCC[C@H](N(Cc3ccnc(C)c3)Cc3cn(C)c4cc(N5CC[C@@H](O)C5)ccc4c3=O)C2)cn1 [Example 23, 7-[(3R)-3-hydroxypyrrolidin-1-yl]-1-methyl-3-({[(3S)-1-(6-methylpyridin-3-yl)piperidin-3-yl][(2-methylpyridin-4-yl)methyl]amino}methyl)-1,4-dihydroquinolin-4-one] | ++ (10<ΔTm<20° C.)
Cc1ccc(N2CCC[C@H](N(Cc3ccnc(C)c3)Cc3cn(C4CC4)c4cc(NCCN)c(F)cc4c3=O)C2)cn1 [Example 8, 7-[(2-Aminoethyl)amino]-1-cyclopropyl-6-fluoro-3-({[(3S)-1-(6-methylpyridin-3-yl)piperidin-3-yl][(2-methylpyridin-4-yl)methyl]amino}methyl)-1,4-dihydroquinolin-4-one] | +++ (ΔTm≥20° C.)
Cc1ccc(N2CCC[C@H](N(Cc3ccnc(C)c3)Cc3cn(C4CC4)c4cc(N5CCC(O)CC5)c(F)cc4c3=O)C2)cn1.Cl [Example 32, 1-cyclopropyl-6-fluoro-7-(4-hydroxypiperidin-1-yl)-3-({[(3S)-1-(6-methylpyridin-3-yl)piperidin-3-yl][(2-methylpyridin-4-yl)methyl]amino}methyl)-1,4-dihydroquinolin-4-one Hydrochloride] | +++ (ΔTm≥20° C.)
Cc1ccc(N2CCC[C@H](N(Cc3ccnc(C)c3)Cc3cn(C4CC4)c4cc(N5CC(CO)C5)c(F)cc4c3=O)C2)cn1 [Example 27, 1-cyclopropyl-6-fluoro-7-[3-(hydroxymethyl)azetidin-1-yl]-3-({[(3S)-1-(6-methylpyridin-3-yl)piperidin-3-yl][(2-methylpyridin-4-yl)methyl]amino}methyl)-1,4-dihydroquinolin-4-one] | +++ (ΔTm≥20° C.)
CNCCOc1cc2c(cc1F)c(=O)c(CN(Cc1ccnc(C)c1)[C@H]1CCCN(c3ccc(C)nc3)C1)cn2C1CC1.Cl [Example 11, 1-Cyclopropyl-6-fluoro-7-[2-(methylamino)ethoxy]-3-({[(3S)-1-(6-methylpyridin-3-yl)piperidin-3-yl][(2-methylpyridin-4-yl)methyl]amino}methyl)-1,4-dihydroquinolin-4-one Hydrochloride] | +++ (ΔTm≥20° C.)
Cc1ccc(N2CCC[C@H](N(Cc3ccnc(N)c3)Cc3cn(C4CC4)c4cc(F)c(F)cc4c3=O)C2)cn1 [Example 5, 3-({[(2-Aminopyridin-4-yl)methyl][(3S)-1-(6-methylpyridin-3-yl)piperidin-3-yl]amino}methyl)-1-cyclopropyl-6,7-difluoro-1,4-dihydroquinolin-4-one Hydrochloride] | +++ (ΔTm≥20° C.)
Cc1cc(CN(Cc2cn(C3CC3)c3cc(N4CC[C@@H](O)C4)c(F)cc3c2=O)[C@H]2CCCN(c3cccnc3)C2)ccn1 [Example 78, 1-cyclopropyl-6-fluoro-7-[(3R)-3-hydroxypyrrolidin-1-yl]-3-({[(2-methylpyridin-4-yl)methyl][(3S)-1-(pyridin-3-yl)piperidin-3-yl]amino}methyl)-1,4-dihydroquinolin-4-one] | +++ (ΔTm≥20° C.)
Cc1ccc(N2CCC[C@H](N(Cc3ccnc(C)c3)Cc3cn(C4CC4)c4cc(N5CC[C@H](CN)C5)c(F)cc4c3=O)C2)cn1.Cl [Example 15, 7-[(3R)-3-(Aminomethyl)pyrrolidin-1-yl]-1-cyclopropyl-6-fluoro-3-({[(3S)-1-(6-methylpyridin-3-yl)piperidin-3-yl][(2-methylpyridin-4-yl)methyl]amino}methyl)-1,4-dihydroquinolin-4-one Hydrochloride] | +++ (ΔTm≥20° C.)
Cc1ccc(N2CCC[C@H](N(Cc3ccnc(C)c3)Cc3cn(C4CC4)c4cc(N5CC[C@@H](O)C5)c(F)cc4c3=O)C2)cn1.Cl [Example 14, 1-Cyclopropyl-6-fluoro-7-[(3R)-3-hydroxypyrrolidin-1-yl]-3-({[(3S)-1-(6-methylpyridin-3-yl)piperidin-3-yl][(2-methylpyridin-4-yl)methyl]amino}methyl)-1,4-dihydroquinolin-4-one Hydrochloride] | +++ (ΔTm≥20° C.)
Cc1ccc(N2CCC[C@H](N(Cc3ccnc(C)c3)Cc3cn(C4CC4)c4cc(N5CCC6NCCC6C5)c(F)cc4c3=O)C2)cn1 (stereo partly drawn) [Example 68, 1-cyclopropyl-6-fluoro-3-({[(3S)-1-(6-methylpyridin-3-yl)piperidin-3-yl][(2-methylpyridin-4-yl)methyl]amino}methyl)-7-{octahydro-1H-pyrrolo[3,2-c]pyridin-5-yl}-1,4-dihydroquinolin-4-one] | +++ (ΔTm≥20° C.)
Cc1ccc(N2CCC[C@H](N(Cc3ccnc(C)c3)Cc3cn(C4CC4)c4cc(N5CCC[C@H](N)C5)c(F)cc4c3=O)C2)cn1 [Example 16, 7-[(3S)-3-Aminopiperidin-1-yl]-1-cyclopropyl-6-fluoro-3-({[(3S)-1-(6-methylpyridin-3-yl)piperidin-3-yl][(2-methylpyridin-4-yl)methyl]amino}methyl)-1,4-dihydroquinolin-4-one] | +++ (ΔTm≥20° C.)
CN[C@@H]1CCN(c2cc3c(cc2F)c(=O)c(CN(Cc2ccnc(C)c2)[C@H]2CCCN(c4ccc(C)nc4)C2)cn3C2CC2)C1.Cl [Example 55, 1-Cyclopropyl-6-fluoro-7-[(3R)-3-(methylamino)pyrrolidin-1-yl]-3-({[(3S)-1-(6-methylpyridin-3-yl)piperidin-3-yl][(2-methylpyridin-4-yl)methyl]amino}methyl)-1,4-dihydroquinolin-4-one Hydrochloride] | +++ (ΔTm≥20° C.)
Cc1cc(CN(Cc2cn(C3COC3)c3ccccc3c2=O)[C@H]2CCCN(c3ccc(N)nc3)C2)ccn1 [Example 35, 3-({[(3S)-1-(6-aminopyridin-3-yl)piperidin-3-yl][(2-methylpyridin-4-yl)methyl]amino}methyl)-1-(oxetan-3-yl)-1,4-dihydroquinolin-4-one] | +++ (ΔTm≥20° C.)
